Patent publication US11911394B2, “Compound and method for the prevention of transmission of influenza virus” (Hoffmann-La Roche Inc., priority 2019, dated 2024)

Assays:
[1] = tested on: influenza A virus A/England/195/2009; experiment: Example 1 ferret transmission study, real-time RT-PCR of nasal wash; assay type: in vivo; settings: positive/total; for Sentinel DC ferrets positive for influenza as detected by the qRT-PCR: direct contact sentinels; for Sentinel RD ferrets positive for influenza as detected by the qRT-PCR: respiratory droplet sentinels
Method: In this experiment baloxavir was administered once to ferrets as s.c. suspension with 1 mg/kg at 4 different locations in the back. Oseltamivir phosphate (5 mg/kg) was orally administered twice daily for 5 days.
24 hours post infection, the 4 infected ferrets were nasal washed. Nasal washes were assayed immediately by plaquing on fresh MDCK cells for infectious virus and carrying out RT-PCR for viral RNA load. Each donor ferret was then treated with either baloxavir, oseltamivir phosphate or vehicle only. Baloxavir was administered once subcutaneously in 4 locations on the back with 1 mg/l mL/kg per injection (total 4 mg/4 mL/kg). After dosing of baloxavir blood samples (minimum 200 μl) were collected from the donor animals at 48 h and 144 h, respectively, for pharmacokinetics (PK) analysis.
A 5 mg/kg dose of oseltamivir phosphate was orally administered twice daily for 5 days, which is considered to be equivalent to the standard human adult dose of 75 mg for treatment (J Antimicrob Chemother 2014; 69: 2458-2469). After drug administration on day 1 one sentinel animal was introduced into same cage as each infected donor (DC animal) and one sentinel animal was introduced into adjacent cage (RD animal). Sentinel animals were not treated with any drug.
All ferrets were nasal washed on day 2 and every subsequent day until experiment end starting with RD animals, then DC animals, and finishing with donors. Plaque assay was performed immediately on nasal wash. Virus RNA was also monitored by RT-PCR. Daily observation of clinical signs including temperature, weight loss and respiratory signs was performed. In addition, virus exhaled in breath from the 4 donor animals was monitored by placing them in a chamber for 10 minutes and sampling air using sentinel MDCK cells.
140 μl of ferret nasal wash was used to extract RNA using the Qiagen Viral RNA mini kit (Cat No./ID: 52904), according to manufacturer's instructions.
Real-time PCR was performed using 7500 Real Time PCR system (ABI) in 20 μl reactions using AgPath-ID™ One-Step RT-PCR Reagents 10 μl RT-PCR buffer (2×) (Thermo Fisher, Cat. No. 4387391), 4 μl of RNA, 0.8 μl forward (5′[…] 3′, SEQ ID NO:1) and reverse primers (5′ […]3′, SEQ ID NO:2) and 0.4 μl probe (5′ FAM-[…]-BHQ1 3′, SEQ ID NO:3). Reverse transcription was carried out at 45° C. for 10 min. PCR amplification conditions consisted of 95° C. for 15 s and 60° C. for 1 min after an initial denaturation step at 95° C. for 10 min. In total 40 cycles were performed. For each sample, the Ct value for the target M gene was determined. M gene is an influenza gene encoding the 2 Matrix proteins M1 and M2. The M gene is detected in PCR and can be used to quantify the influenza virus. Based on the standard curves, absolute copy numbers were calculated to establish if the ferret was positive for influenza A.

[2] = Example 5 pharmacokinetic analysis in ferret, plasma concentration by LC-MS/MS; assay type: in vivo
Method: Outbred female and ferrets 28 months old and weighing between 650-802 g were obtained from Japan SLC, Inc. Identification was conducted by labeling sequential number in front of each cage. Animals were monitored at least once daily for their clinical observations, and had ad libitum access to pellet feed (LabDiet High Density Ferret Diet, Lab Supply, USA) and water. Ferrets at endpoint were euthanized by exsanguination under anesthesia by inhalation with isoflurane (Pfizer). Ferret studies were performed in Shionogi Pharmaceutical Research Center, Shionogi & Co., Ltd. (Osaka, Japan), according to the animal study protocol which was approved by the Institutional Animal Care and Use Committee in Shionogi.
The active form baloxavir acid (S-033447, hereafter BXA) was provided by Test Substance Control Personnel, Shionogi & Co., Ltd., Japan. The vehicle for BXA delivery was methyl cellulose (Fuji-Film Wako, Japan) in 0.5 w/v % aqueous solution prepared with sterile water (hereafter MC solution). BXA in suspension with MC solution (1 mg/mL) was prepared using an agate mortar and pestle, and was delivered to reversibly anaesthetised animals in a single treatment consisting of 4 subcutaneous injections at 4 locations on the dorsal region (total dose 4 mg/kg per animal). […]
The plasma concentration of BXA was determined by LC-MS/MS, consisting of LC-20A system (Shimadzu Corporation, Japan) and API 5000 (AB SCIEX, USA). […]
Precursor/product transitions (m/z) of 484/247 and 490/247 were monitored for BXA and internal standard, BXA-racemate-d4^18O, respectively. […]
The plasma concentrations of BXA for each individual ferret were calculated by Analyst software (AB SCIEX, USA). The mean value and standard deviation were also calculated using individual data by Microsoft Excel (Microsoft Co., USA).

Compound | Sentinel DC ferrets positive for influenza as detected by the qRT-PCR [1] | Donor ferrets positive for influenza as detected by the qRT-PCR [1] | Sentinel RD ferrets positive for influenza as detected by the qRT-PCR [1] | concentration at 168 h ([2]; plasma, subcutaneous, single s.c. suspension 4 mg/kg, 168 hours postdose, read-out: mean plasma concentration at last sampling point) [ng/mL] | time at which mean plasma concentration reached the maximum ([2]; single s.c. suspension 4 mg/kg) [hours postdose] | mean plasma concentration, maximum ([2]; single s.c. suspension 4 mg/kg (4 locations, 1 mg/kg per location), 3 hours postdose) [ng/mL]
O=C1c2c(O)c(=O)ccn2N([C@@H]2c3ccccc3SCc3c2ccc(F)c3F)[C@@H]2COCCN12 [baloxavir, baloxavir acid] | 4/4 | 4/4 | 1/4 | 9.08 | 3 | 26.1
CCOC(=O)C1=C[C@@H](OC(CC)CC)[C@H](NC(C)=O)[C@@H](N)C1 [oseltamivir, oseltamivir phosphate, reference compound] | 4/4 | 4/4 | 4/4 | – | – | –
